“Also recorded” adds a separate entry of the source.

From patent US12115163B2, “Combination therapy comprising a MAT2A inhibitor and a type II PRMT inhibitor” (IDEAYA BIOSCIENCES, INC., priority 2021, dated 2024) come the findings set out here.

What all share (type): in vivo, mouse
Experiment [1] concerns HCT-116 MTAP-deleted tumors. Description: Efficacy of Compound A and Compound B in HCT-116 MTAP-deleted xenografts (Example 5). The settings on record: for TGI (%) / Final TV (mean): Day 21; for Final TV (mean): initial TV 224. As to the method:
(§1) The effect of Compound A and Compound B (HCl salt was used) as single-agent anti-tumor agents and in combination was assessed in the HCT-116 human colon tumor cell line, MTAP isogenic pair (MTAP proficient (WT) or MTAP-deleted). Cells were expanded in DMEM/F12 GlutaMAX (Fisher Scientific, Catalog Number 10-565-018) with 10% fetal bovine serum. These cells were free of mycoplasma and authenticated as HCT-116 by STR profiling. Two and a half million cells in log growth phase were resuspended in Hanks Balanced Salt Solution containing 50% Matrigel and implanted subcutaneously into the flank of each recipient female nu/nu mouse. Mice were housed in microisolator cages with corn cob bedding with additional enrichment consisting of sterile nesting material (Innovive) and Bio-huts (Bio-Serv). Water (Innovive) and diet (Teklad Global 19% Protein Extruded Diet 2919, Irradiated) were provided ad libitum. The environment was maintained on a 12-hour light cycle at approximately 68-72° F. and 40-60% relative humidity.
(§2) Tumor Volume (TV) was calculated using the following formula: TV (mm^3)=(width×width×length)/2. No dose holidays were provided for during the study and all mice were euthanized following the final dose on Day 21 (MTAP-deleted) or Day 15 (MTAP WT). Tumor growth inhibition (TGI) was calculated by [(TV controlfinal−TV treatedfinal)/(TV controlfinal−TV controlinitial)×100]. A TGI greater than 100% indicates tumor regressions. TV was analyzed for statistical significance utilizing GraphPad Prism version 9.1.0. Repeated Measures 2-Way ANOVA with Tukey's Multiple Comparisons was utilized, and P-values were presented from the final tumor measurement and were considered statistically significant if less than 0.05.
(§3) Mean tumor volume at dosing start was approximately 224 mm^3, with seven mice randomized to each treatment group. In the HCT-116 MTAP-deleted tumor model, mice were dosed orally, twice per day (BID) with Vehicle, once per day (QD) with Compound A at 1 or 3 mg/kg, or BID with Compound B at 3, 10, or 30 mg/kg, or Compound A combined with Compound B at each dose level. In the HCT-116 WT tumor model, mice were dosed orally, with BID Vehicle, QD with Compound A at 3 mg/kg, or BID with Compound B at 10 or 30 mg/kg, or Compound A combined with Compound B. The Vehicle was 0.5% 400 cps methylcellulose with 0.5% Tween-80 in sterile water.

Experiment [2] deals with HCT-116 MTAP WT tumors. As to the kind of experiment: Efficacy of Compound A and Compound B in HCT-116 MTAP WT xenografts (Example 5). The settings on record: for TGI (%) / Final TV (mean): Day 15; for Final TV (mean): initial TV 228. As to the method:
as §1, §2, §3

Experiment [3] has as its system LU99 MTAP-deleted xenografts. As to the kind of experiment: Efficacy of Compound A and Compound B in LU99 NSCLC xenograft (Example 7). The settings on record: for TGI (%) / Final TV (mean): Study Day 21. As for the experimental part: (§4) The effect of Compound A and Compound B (HCl salt was used) as single-agent anti-tumor agents and in combination was assessed in the JCRB LU99 human NSCLC tumor cell line, an endogenously MTAP-deleted cell line. Cells were expanded in RPMI with 10% fetal bovine serum. These cells were free of mycoplasma and authenticated by STR profiling. Ten million cells in log growth phase were resuspended in RPMI-1640 containing 50% Matrigel and implanted subcutaneously into the flank of each recipient female BALB/c nude mouse. The mice were be kept in laminar flow rooms at constant temperature and humidity with 3-5 mice in each cage. Animals were housed in polycarbonate cages maintained at a temperature of 23±3° C. and a relative humidity of 40% to 70%. The bedding material was soft wood, which was changed once per week. Water and diet were provided ad libitum.
as §2, with “study.” for “study and all mice were euthanized following the final dose on Day 21 (MTAP-deleted) or Day 15 (MTAP WT).”, “measurement on Study Day 21” for “measurement”
Mean tumor volume at dosing start was approximately 141 mm^3, with ten mice randomized to each treatment group, with the study consisting of eight treatment groups. Mice were dosed orally, twice per day (BID) with Vehicle, once per day (QD) with Compound A at 3 mg/kg, or BID with Compound B at 1, 10, or 30 mg/kg, or Compound A combined with Compound B at each dose level. The Vehicle was 0.5% 400 cps methylcellulose with 0.5% Tween-80 in sterile water.

Experiment [4] relates to NCI-H838 MTAP-deleted xenografts. As to the kind of experiment: Efficacy of Compound A and Compound B in NCI-H838 NSCLC xenograft (Example 6). The settings on record: for TGI (%): Study Day 25; for Final TV (mean): initial TV 140. As for the experimental part: as §4, with “NCI-H838” for “JCRB LU99”
as §2, with “the study.” for “the study and all mice were euthanized following the final dose on Day 21 (MTAP-deleted) or Day 15 (MTAP WT).”, “the Study Day 25” for “the final”
Mean tumor volume at dosing start was approximately 140 mm^3, with ten mice randomized to each treatment group, with the study consisting of eight treatment groups. Mice were dosed orally, twice per day (BID) with Vehicle, once per day (QD) with Compound A at 3 mg/kg, or BID with Compound B at 1, 10, or 30 mg/kg, or Compound A combined with Compound B at each dose level. The Vehicle was 0.5% 400 cps methylcellulose with 0.5% Tween-80 in sterile water.

Where [5] appears, read: HCT-116 MTAP WT model, over the dose levels tested.

For the compound `Cn1ncc(-c2ccc3c(=O)[nH]nc(CN)c3c2)c1-c1c(F)cc2ccccc2c1C#N` (atropisomer, axis not shown) [Compound B], the “TGI (%)” value in experiment [1] (Compound B 3 mg/kg BID orally) is 29%; in experiment [1] (Compound B 10 mg/kg BID orally) it was 49%; in experiment [1] (Compound B 30 mg/kg BID orally) it was 83%; in experiment [2] (Compound B 10 mg/kg BID orally), −52%; in experiment [2] (Compound B 30 mg/kg BID orally), −27%; in experiment [3] (Compound B 1 mg/kg BID orally), 23%. Further, the “TGI (%)” value is reported as 74% in experiment [3] (Compound B 10 mg/kg BID orally); 90% in experiment [3] (Compound B 30 mg/kg BID orally); 53% in experiment [4] (Compound B 1 mg/kg BID orally); 56% in experiment [4] (Compound B 10 mg/kg BID orally); 67% in experiment [4] (Compound B 30 mg/kg BID orally). Also, the “Final TV (mean)” value amounted to 1015 mm^3 in experiment [1] (Compound B 3 mg/kg BID orally); 794 mm^3 in experiment [1] (Compound B 10 mg/kg BID orally); 420 mm^3 in experiment [1] (Compound B 30 mg/kg BID orally); 1596 mm^3 in experiment [2] (Compound B 10 mg/kg BID orally); 1372 mm^3 in experiment [2] (Compound B 30 mg/kg BID orally); 1765 mm^3 in experiment [3] (Compound B 1 mg/kg BID orally, initial TV 142). The “Final TV (mean)” value in experiment [3] (Compound B 10 mg/kg BID orally, initial TV 142) worked out at 683 mm^3; in experiment [3] (Compound B 30 mg/kg BID orally, initial TV 141) it was 353 mm^3; in experiment [4] (Compound B 1 mg/kg BID orally), 899 mm^3; in experiment [4] (Compound B 10 mg/kg BID orally), 839 mm^3; in experiment [4] (Compound B 30 mg/kg BID orally), 666 mm^3. Also, the “anti-tumor activity (in words)” value in experiment [2] (Compound B 10 mg/kg BID) was “significantly enhanced tumor growth”; in experiment [2] (setting [5]), “no single agent activity”.
In the case of `Nc1nc(=O)n(-c2ccccc2Cl)c2nc(C(F)(F)F)ccc12` [Compound A], the “TGI (%)” value is recorded as 64% in experiment [1] (Compound A 1 mg/kg QD orally); 80% in experiment [1] (Compound A 3 mg/kg QD orally); −9% in experiment [2] (Compound A 3 mg/kg QD orally); 43% in experiment [3] (Compound A 3 mg/kg QD orally); 79% in experiment [4] (Compound A 3 mg/kg QD orally). Also, the “Final TV (mean)” value is on record as 632 mm^3 in experiment [1] (Compound A 1 mg/kg QD orally); 450 mm^3 in experiment [1] (Compound A 3 mg/kg QD orally); 1211 mm^3 in experiment [2] (Compound A 3 mg/kg QD orally); 1341 mm^3 in experiment [3] (Compound A 3 mg/kg QD orally, initial TV 142); 478 mm^3 in experiment [4] (Compound A 3 mg/kg QD orally). For the same compound, the “anti-tumor activity (in words)” value is listed as “statistically significant anti-tumor activity” in experiment [1] (HCT-116 MTAP-deleted model, over the dose levels tested); “no tumor growth inhibition; also recorded: no single agent activity” in experiment [2] (setting [5]); “statistically significant anti-tumor activity” in experiment [3] (LU99 model, over the dose levels tested); “statistically significant anti-tumor activity” in experiment [4] (NCI-H838 model, over the dose levels tested).
